From patent US12653796B2, “Compounds for use (in particular RIPA-56) in the prevention and/or treatment of non-alcoholic fatty liver disease” (SORBONNE UNIVERSITE, priority 2019, dated 2026) come the findings set out here.

The test system of experiment [1] is L929 cells. The experiment can be described thus: TNF-induced RIPK1-dependent cell death in L929 cells (MTT cell survival). Type of experiment: cell-based. The following applies: 20 μM, 2 h pre-treatment, TNF (50 ng/mL) 20 h. Here is the method: FIG. 1. RIPA-56 prevents RIPK1-dependent cell death in L929 cells upon caspase inhibition and TNF stimulation. L929 cells were treated with RIPA-56 (20 μM), Nec-1 (20 μM) or vehicle for 2 h, prior to incubation with or without TNF (50 ng/mL), and analyzed for (A) morphology and (B) cell survival using MTT assay, after 20 h incubation with or without TNF; (C) Western blot analyses at different time points of incubation with TNF. Results are shown as mean±SEM; n.s., not significant; ****p<0.0001. Data are representative of three independent experiments.
L929 cells (LGC Standards, Molsheim, France), were cultured in Dulbecco's modified Eagle's medium (DMEM) (ThermoFisher, Massachusetts, USA) supplemented with 10% fetal bovine serum (Eurobio, Courtaboeuf, France), penicillin (100 IU/ml), streptomycin (0.1 mg/ml), and L-glutamine (0.03%) (ThermoFisher). […]
Cell viability was determined by using 3-(4,5-dimethylthiazol-2-yl)-[…] (MTT) colorimetric assay (ThermoFisher), which measures cell metabolic activity. […] Once MTT crystals were developed and controlled under light microscopy, they were dissolved in DMSO and quantified by measuring absorbance at 540 nm.

Experiment [2] relates to primary human hepatocytes. The experiment is described as follows: Fat depletion in primary human hepatocytes with free fatty acid-induced steatosis. It counts as cell-based. The note with it: 20 μM, 24 h. How it is done:
FIG. 7. RIPA-56 treatment induces fat depletion in primary human hepatocytes. Primary human hepatocytes were isolated from steatotic human livers of patients with NAFLD (n=5) (A-C) or from non-steatotic human livers and incubated with free fatty acids to induce steatosis or without (W/O) (n=5) (D-G), and treated with RIPA-56 (20 μM) or DMSO (vehicle) for 24 h. (A, D) Representative Oil Red-O and DAPI images; (B, E) Quantification of Oil Red-O staining normalized for the number of DAPI-stained nuclei; (C, F) Quantification of intracellular triglycerides normalized to protein content; (G) mRNA levels of CPT1A, MTTP and APOB100 were assessed by RT-qPCR, and shown relative to DMSO-treated hepatocytes. Results are shown as mean±SEM; n.s., not significant; *p<0.05; **p<0.01; scale bars, 100 μm. These findings are representative of five independent cell preparations.
FIG. 9. MLKL controls intrahepatic triglyceride content in hepatocytes. (A-D) Primary human hepatocytes were isolated from non-steatotic human livers and incubated with free fatty acids to induce steatosis, or without (W/O), and treated with necrosulfonamide (NSA) (20 μM) or DMSO (vehicle) for 24 h. (A) Representative Oil Red-O and DAPI images; (B) Quantification of Oil Red-O staining normalized for the number of DAPI-stained nuclei; (C) Quantification of intracellular triglycerides normalized to protein content. (D) mRNA levels of CPT1A, MTTP and APOB100 were assessed by RT-qPCR and shown relative to DMSO-treated hepatocytes; (E-H) AML-12 cells were knocked-out (KO) for MLKL and compared with control (CTL) cells, which underwent a similar CRISPR-Cas9 selection as KO cells; (E) Whole-cell lysates were extracted from CTL and MLKL-KO AML-12 cells and analyzed by Western blot using antibodies against MLKL, Tubulin and GAPDH; (F) Representative Oil Red-O and DAPI images; (G) Oil Red-O staining and (H) triglycerides quantification in fat-loaded cell lines. Results are shown as mean±SEM; n.s., not significant; *p<0.05; **p<0.01; ***p<0.001; scale bars, 100 μm. These experiments are representative of five independent cell preparations.
The liver fragment was initially perfused with a prewarmed (37° C.) calcium-free buffer supplemented with 5 mmol/L ethylene glycol tetra-acetic acid (Sigma) followed by perfusion with a prewarmed (37° C.) buffer containing 6 mmol/L calcium (CaCl2) and collagenase 0.05% ([…]) (Sigma). The liver fragment was then gently shaken to disperse liver cells in Hepatocyte Wash Medium (Life Technologies, Villebon-sur-Yvette, France). The resulting cell suspension was filtered through a gauze-lined funnel. Cells were then centrifuged at low speed. The supernatant, containing damaged or dead hepatocytes, non-parenchymal cells and debris were removed and pelleted hepatocytes were re-suspended in Hepatocyte Wash Medium. The count of viable cells was determined using trypan blue exclusion. Freshly isolated normal (steatosis <5%) or steatotic (>10%) hepatocytes were resuspended in Williams medium E (Life technologies) containing 10% fetal calf serum (Eurobio), penicillin (200 U/mL)-streptomycin (200 μg/mL), Fungizone (2.5 μg/mL) and insulin (0.1 U/mL) (Life Technologies). The cells were seeded in 12-, 24- and 96-well plates pre-coated with type I collagen at a density of 0.78×10^6, 0.4×10^6 and 0.5×10^5 viable cells/well, respectively, and incubated overnight at 37° C. in a 5% CO2 atmosphere. The medium was replaced with fresh complete hepatocyte medium supplemented with 1 μmol/L hydrocortisone hemisuccinate (Laboratoires SERB, Paris, France) and hepatocytes were maintained in this medium. To induce steatosis in normal hepatocytes, PHH were incubated with free fatty acid (FFA) mixtures of oleic acid and palmitic acid in a molar ratio 2:1 (500:250 μmol/L), respectively, and with 1% fatty-acid-free BSA for 48 hours.
Total RNA was purified from liver tissue using TRIzol reagent (ThermoFisher) and a RNeasy Mini kit (Qiagen, Courtaboeuf, France). […]

For the compound `CCC(C)(C)C(=O)N(O)Cc1ccccc1` [RIPA-56, N-Benzyl-N-hydroxy-2,2-dimethylbutanamide], the RIPK1-dependent cell death result in experiment [1] is listed as “prevents”. For the same compound, in experiment [2] (FFA-induced steatosis), the “intracellular lipid droplets (Oil Red-O)” value is “significant decrease” and the intracellular triglyceride content result is on record as “significant decrease”. The “CPT1A, APOB100 and MTTP expression (mRNA)” value in experiment [2] (RT-qPCR) is “up-regulation”.
